Common to all, as to test: Histone demethylase assay, purified enzyme panel
Common to all, as to format: biochemical
Conditions in all cases: Reference inhibitor

One assay addresses T1, JMJD2A (KDM4A) (Homo sapiens, UniProt O75164).
T1 sequence (O75164 1-1064): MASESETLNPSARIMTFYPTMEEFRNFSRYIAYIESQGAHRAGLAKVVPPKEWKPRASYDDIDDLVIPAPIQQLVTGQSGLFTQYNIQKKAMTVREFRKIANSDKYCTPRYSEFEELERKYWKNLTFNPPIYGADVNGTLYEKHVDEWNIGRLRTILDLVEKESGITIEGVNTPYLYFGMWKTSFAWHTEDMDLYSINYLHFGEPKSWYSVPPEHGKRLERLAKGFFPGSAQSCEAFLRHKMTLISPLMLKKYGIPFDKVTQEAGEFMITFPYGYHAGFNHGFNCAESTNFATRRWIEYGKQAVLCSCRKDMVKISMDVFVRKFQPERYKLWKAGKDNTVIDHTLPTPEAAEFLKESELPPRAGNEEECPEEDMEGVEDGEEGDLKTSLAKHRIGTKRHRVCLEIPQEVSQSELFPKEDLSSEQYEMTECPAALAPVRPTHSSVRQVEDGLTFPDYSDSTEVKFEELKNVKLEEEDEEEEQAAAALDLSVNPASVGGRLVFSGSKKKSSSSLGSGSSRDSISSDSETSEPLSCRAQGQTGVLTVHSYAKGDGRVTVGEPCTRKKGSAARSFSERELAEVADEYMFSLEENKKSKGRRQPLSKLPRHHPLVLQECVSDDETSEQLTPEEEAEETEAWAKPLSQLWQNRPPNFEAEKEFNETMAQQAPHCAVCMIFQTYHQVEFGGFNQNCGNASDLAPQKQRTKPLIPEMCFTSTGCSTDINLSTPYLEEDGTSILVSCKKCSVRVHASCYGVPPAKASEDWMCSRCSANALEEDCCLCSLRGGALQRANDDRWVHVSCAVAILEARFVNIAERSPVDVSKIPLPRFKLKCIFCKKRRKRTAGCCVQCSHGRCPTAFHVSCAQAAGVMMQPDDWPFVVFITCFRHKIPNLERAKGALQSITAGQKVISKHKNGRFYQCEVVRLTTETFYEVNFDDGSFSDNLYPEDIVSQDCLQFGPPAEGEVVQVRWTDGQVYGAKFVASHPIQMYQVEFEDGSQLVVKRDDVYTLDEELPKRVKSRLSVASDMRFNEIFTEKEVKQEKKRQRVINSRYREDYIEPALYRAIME
An excerpt: (§1) Histone Demethylase Assay
(§2) To further examine the effects of 58B1 on histone demethylase, we screened a panel of purified histone demethylases was screened.

Another assay concerns the target T2, FBXL10 (KDM2B) (Homo sapiens, UniProt Q8NHM5).
T2 sequence (Q8NHM5 1-1336): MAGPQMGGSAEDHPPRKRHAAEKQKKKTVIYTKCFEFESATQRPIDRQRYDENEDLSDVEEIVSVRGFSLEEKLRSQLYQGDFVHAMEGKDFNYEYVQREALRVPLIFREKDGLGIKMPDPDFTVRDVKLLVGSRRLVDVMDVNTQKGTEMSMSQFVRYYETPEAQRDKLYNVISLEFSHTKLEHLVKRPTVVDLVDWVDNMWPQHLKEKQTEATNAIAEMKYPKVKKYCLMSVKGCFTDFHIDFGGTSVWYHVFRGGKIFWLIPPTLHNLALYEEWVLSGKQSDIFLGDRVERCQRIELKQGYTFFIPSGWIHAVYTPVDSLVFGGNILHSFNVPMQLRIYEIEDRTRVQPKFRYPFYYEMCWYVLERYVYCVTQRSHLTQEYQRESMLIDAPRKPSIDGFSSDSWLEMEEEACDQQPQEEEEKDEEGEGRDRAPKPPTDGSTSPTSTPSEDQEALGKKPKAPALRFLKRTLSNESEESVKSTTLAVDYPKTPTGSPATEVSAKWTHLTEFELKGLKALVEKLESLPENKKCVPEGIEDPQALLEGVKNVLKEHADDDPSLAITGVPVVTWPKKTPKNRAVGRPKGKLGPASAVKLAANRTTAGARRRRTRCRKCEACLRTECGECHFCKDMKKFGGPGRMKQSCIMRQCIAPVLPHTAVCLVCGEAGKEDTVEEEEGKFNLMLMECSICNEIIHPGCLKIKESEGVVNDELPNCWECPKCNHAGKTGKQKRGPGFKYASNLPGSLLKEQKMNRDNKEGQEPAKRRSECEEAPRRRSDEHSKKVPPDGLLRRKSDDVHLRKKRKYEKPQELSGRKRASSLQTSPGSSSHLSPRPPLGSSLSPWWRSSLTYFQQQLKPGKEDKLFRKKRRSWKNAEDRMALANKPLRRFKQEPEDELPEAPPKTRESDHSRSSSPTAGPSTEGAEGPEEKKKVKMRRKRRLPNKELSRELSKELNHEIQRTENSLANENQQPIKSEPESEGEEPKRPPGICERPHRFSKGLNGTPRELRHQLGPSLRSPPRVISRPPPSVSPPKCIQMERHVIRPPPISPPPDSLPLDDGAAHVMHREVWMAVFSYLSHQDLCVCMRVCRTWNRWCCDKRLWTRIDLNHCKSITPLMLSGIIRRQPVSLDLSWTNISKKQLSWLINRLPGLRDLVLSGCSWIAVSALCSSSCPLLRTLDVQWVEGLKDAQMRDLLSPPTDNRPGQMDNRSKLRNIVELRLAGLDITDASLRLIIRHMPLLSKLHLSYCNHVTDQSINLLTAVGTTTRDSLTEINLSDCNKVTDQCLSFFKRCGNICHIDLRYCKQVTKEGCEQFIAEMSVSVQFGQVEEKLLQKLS
Text: as §1, §2

The next assay addresses T3, JMJD2C (KDM4C) (Homo sapiens, UniProt Q9H3R0).
T3 sequence (Q9H3R0 1-1056): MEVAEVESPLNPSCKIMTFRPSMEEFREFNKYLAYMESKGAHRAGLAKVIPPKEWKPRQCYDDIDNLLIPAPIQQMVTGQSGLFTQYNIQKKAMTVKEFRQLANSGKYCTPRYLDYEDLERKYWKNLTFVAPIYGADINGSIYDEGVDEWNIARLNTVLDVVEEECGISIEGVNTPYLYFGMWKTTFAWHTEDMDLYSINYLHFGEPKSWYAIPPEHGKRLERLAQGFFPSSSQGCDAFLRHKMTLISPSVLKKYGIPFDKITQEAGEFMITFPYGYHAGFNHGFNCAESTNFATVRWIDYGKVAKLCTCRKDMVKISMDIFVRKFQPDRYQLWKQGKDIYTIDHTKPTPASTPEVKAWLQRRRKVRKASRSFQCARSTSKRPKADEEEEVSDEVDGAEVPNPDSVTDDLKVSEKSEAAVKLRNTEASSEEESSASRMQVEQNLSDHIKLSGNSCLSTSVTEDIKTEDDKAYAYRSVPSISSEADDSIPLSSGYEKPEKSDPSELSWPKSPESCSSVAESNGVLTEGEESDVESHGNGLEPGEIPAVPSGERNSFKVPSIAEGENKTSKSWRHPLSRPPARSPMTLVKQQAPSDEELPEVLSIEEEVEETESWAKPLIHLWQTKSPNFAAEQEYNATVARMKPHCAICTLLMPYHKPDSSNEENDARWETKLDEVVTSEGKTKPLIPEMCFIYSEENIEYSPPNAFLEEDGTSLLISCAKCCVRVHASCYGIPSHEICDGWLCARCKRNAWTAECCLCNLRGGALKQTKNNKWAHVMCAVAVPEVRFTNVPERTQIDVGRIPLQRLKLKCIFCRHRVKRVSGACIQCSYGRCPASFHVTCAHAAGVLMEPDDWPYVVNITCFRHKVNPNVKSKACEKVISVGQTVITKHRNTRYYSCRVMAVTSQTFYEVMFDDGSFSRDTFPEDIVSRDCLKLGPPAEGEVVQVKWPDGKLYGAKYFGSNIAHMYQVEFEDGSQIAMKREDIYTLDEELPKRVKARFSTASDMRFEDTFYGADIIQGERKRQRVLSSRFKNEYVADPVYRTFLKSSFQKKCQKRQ
Text: as §1, §2

The % Inhibition is the share of the control response that was lost under treatment.

Molecules are shown by their SMILES.

Take `O=C(O)c1ccnc(C(=O)O)c1` [2,4-Pyridine Dicarboxylic Acid, reference compound]: the “% Inhibition” value came out at 100% on JMJD2A (KDM4A), 99% on FBXL10 (KDM2B) and 100% on JMJD2C (KDM4C).
